Data published in ChEMBL document CHEMBL1151508, “Preparation and activities of 4-epi and 4-deoxy-4-amino analogs derived from 9-deoxo-8a-aza-8a-homoerythromycin A” (1994).
In brackets after ≈: the same amount, converted by molar mass.

What was measured:
Assay type in all cases: functional
[1] = system: Streptococcus pneumoniae; test: In vitro minimum inhibitory concentration against Streptococcus pneumoniae CL2883.
[2] = system: Klebsiella pneumoniae; test: In vitro minimum inhibitory concentration against Klebsiella pneumoniae MB4005.
[3] = system: Haemophilus influenzae; test: In vitro minimum inhibitory concentration against Haemophilus influenzae MB5363.
[4] = system: Escherichia coli; test: In vitro minimum inhibitory concentration against Escherichia coli MB2884.
[5] = system: Enterococcus faecalis; test: In vitro minimum inhibitory concentration against Enterococcus faecalis MB5407.
[6] = system: Staphylococcus aureus; test: In vitro minimum inhibitory concentration against Staphylococcus aureus MB2865.

SMILES | MIC [1] [µg/mL] | MIC [2] [µg/mL] | MIC [3] [µg/mL] | MIC [4] [µg/mL] | MIC [5] [µg/mL] | MIC [6] [µg/mL]
CCCN1C[C@H](C)[C@@H](O)[C@](C)(O)[C@@H](CC)OC(=O)[C@H](C)[C@@H](O[C@H]2C[C@@](C)(OC)C(N)[C@H](C)O2)[C@H](C)[C@@H](O[C@@H]2O[C@H](C)C[C@H](N(C)C)[C@H]2O)[C@](C)(O)C[C@H]1C (some centres undefined) | 0.06 (≈ 0.0773 µM) | 0.5 (≈ 0.644 µM) | 0.5 (≈ 0.644 µM) | 0.5 (≈ 0.644 µM) | 2 (≈ 2.58 µM) | 1 (≈ 1.29 µM)
CC[C@H]1OC(=O)[C@H](C)[C@@H](O[C@H]2C[C@@](C)(OC)[C@@H](N(C)C)[C@H](C)O2)[C@H](C)[C@@H](O[C@@H]2O[C@H](C)C[C@H](N(C)C)[C@H]2OC(=O)OCC2c3ccccc3-c3ccccc32)[C@](C)(O)C[C@@H](C)N(C)C[C@H](C)[C@@H](O)[C@]1(C)O | 0.5 (≈ 0.501 µM) | 2 (≈ 2 µM) | 2 (≈ 2 µM) | 1 (≈ 1 µM) | 8 (≈ 8.01 µM) | 8 (≈ 8.01 µM)
CC[C@H]1OC(=O)[C@H](C)[C@@H](O[C@H]2C[C@@](C)(OC)[C@@H](NC(C)=O)[C@H](C)O2)[C@H](C)[C@@H](O[C@@H]2O[C@H](C)C[C@H](N(C)C)[C@H]2OC(=O)OCC2c3ccccc3-c3ccccc32)[C@](C)(O)C[C@@H](C)N(C)C[C@H](C)[C@@H](O)[C@]1(C)O | 0.25 (≈ 0.247 µM) | 2 (≈ 1.98 µM) | 8 (≈ 7.9 µM) | 2 (≈ 1.98 µM) | 8 (≈ 7.9 µM) | 2 (≈ 1.98 µM)
CC[C@H]1OC(=O)[C@H](C)[C@@H](O[C@H]2C[C@@](C)(OC)[C@H](N(C)C)[C@H](C)O2)[C@H](C)[C@@H](O[C@@H]2O[C@H](C)C[C@H](N(C)C)[C@H]2OC(=O)OCC2c3ccccc3-c3ccccc32)[C@](C)(O)C[C@@H](C)N(C)C[C@H](C)[C@@H](O)[C@]1(C)O | 0.5 (≈ 0.501 µM) | 2 (≈ 2 µM) | 2 (≈ 2 µM) | 0.5 (≈ 0.501 µM) | 16 (≈ 16 µM) | 32 (≈ 32.1 µM)
CC[C@H]1OC(=O)[C@H](C)[C@@H](O[C@H]2C[C@@](C)(OC)[C@@H](N)[C@H](C)O2)[C@H](C)[C@@H](O[C@@H]2O[C@H](C)C[C@H](N(C)C)[C@H]2OC(=O)OCC2c3ccccc3-c3ccccc32)[C@](C)(O)C[C@@H](C)N(C)C[C@H](C)[C@@H](O)[C@]1(C)O | 0.06 (≈ 0.0618 µM) | 0.13 (≈ 0.134 µM) | 0.25 (≈ 0.258 µM) | 0.13 (≈ 0.134 µM) | 2 (≈ 2.06 µM) | 1 (≈ 1.03 µM)
CC[C@H]1OC(=O)[C@H](C)[C@@H](O[C@H]2C[C@@](C)(OC)C(N)[C@H](C)O2)[C@H](C)[C@@H](O[C@@H]2O[C@H](C)C[C@H](N(C)C)[C@H]2O)[C@](C)(O)C[C@@H](C)N(C)C[C@H](C)[C@@H](O)[C@]1(C)O (some centres undefined) | 0.03 (≈ 0.0401 µM) | 0.13 (≈ 0.174 µM) | 1 (≈ 1.34 µM) | 0.25 (≈ 0.334 µM) | 4 (≈ 5.35 µM) | 2 (≈ 2.67 µM)
C=CCN1C[C@H](C)[C@@H](O)[C@](C)(O)[C@@H](CC)OC(=O)[C@H](C)[C@@H](O[C@H]2C[C@@](C)(OC)C(N)[C@H](C)O2)[C@H](C)[C@@H](O[C@@H]2O[C@H](C)C[C@H](N(C)C)[C@H]2O)[C@](C)(O)C[C@H]1C (some centres undefined) | 0.06 (≈ 0.0775 µM) | 0.25 (≈ 0.323 µM) | 0.5 (≈ 0.646 µM) | 0.5 (≈ 0.646 µM) | 4 (≈ 5.17 µM) | 2 (≈ 2.58 µM)
CC[C@H]1OC(=O)[C@H](C)[C@@H](O[C@H]2C[C@@](C)(OC)[C@H](O)[C@H](C)O2)[C@H](C)[C@@H](O[C@@H]2O[C@H](C)C[C@H](N(C)C)[C@H]2O)[C@](C)(O)C[C@@H](C)N(C)C[C@H](C)[C@@H](O)[C@]1(C)O | 0.06 (≈ 0.0801 µM) | 4 (≈ 5.34 µM) | 1 (≈ 1.34 µM) | 1 (≈ 1.34 µM) | 1 (≈ 1.34 µM) | 0.5 (≈ 0.668 µM)
CC[C@H]1OC(=O)[C@H](C)[C@@H](O[C@H]2C[C@@](C)(OC)[C@H](NC(C)=O)[C@H](C)O2)[C@H](C)[C@@H](O[C@@H]2O[C@H](C)C[C@H](N(C)C)[C@H]2OC(=O)OCC2c3ccccc3-c3ccccc32)[C@](C)(O)C[C@@H](C)N(C)C[C@H](C)[C@@H](O)[C@]1(C)O | 0.5 (≈ 0.494 µM) | 4 (≈ 3.95 µM) | 4 (≈ 3.95 µM) | 1 (≈ 0.988 µM) | 8 (≈ 7.9 µM) | 16 (≈ 15.8 µM)
CC[C@H]1OC(=O)[C@H](C)[C@@H](O[C@H]2C[C@@](C)(OC)[C@@H](n3cccc3)[C@H](C)O2)[C@H](C)[C@@H](O[C@@H]2O[C@H](C)C[C@H](N(C)C)[C@H]2OC(=O)OCC2c3ccccc3-c3ccccc32)[C@](C)(O)C[C@@H](C)N(C)C[C@H](C)[C@@H](O)[C@]1(C)O | 0.13 (≈ 0.127 µM) | 4 (≈ 3.92 µM) | 4 (≈ 3.92 µM) | 4 (≈ 3.92 µM) | 2 (≈ 1.96 µM) | 4 (≈ 3.92 µM)
CC[C@H]1OC(=O)[C@H](C)[C@@H](O[C@H]2C[C@@](C)(OC)[C@H](N)[C@H](C)O2)[C@H](C)[C@@H](O[C@@H]2O[C@H](C)C[C@H](N(C)C)[C@H]2OC(=O)OCC2c3ccccc3-c3ccccc32)[C@](C)(O)C[C@@H](C)N(C)C[C@H](C)[C@@H](O)[C@]1(C)O | 0.06 (≈ 0.0618 µM) | 0.25 (≈ 0.258 µM) | 0.5 (≈ 0.515 µM) | 0.25 (≈ 0.258 µM) | 2 (≈ 2.06 µM) | 1 (≈ 1.03 µM)
C=CCN1C[C@H](C)[C@@H](O)[C@](C)(O)[C@@H](CC)OC(=O)[C@H](C)[C@@H](O[C@H]2C[C@@](C)(OC)[C@@H](N)[C@H](C)O2)[C@H](C)[C@@H](O[C@@H]2O[C@H](C)C[C@H](N(C)C)[C@H]2OC(=O)OCC2c3ccccc3-c3ccccc32)[C@](C)(O)C[C@H]1C | 0.03 (≈ 0.0301 µM) | 0.13 (≈ 0.13 µM) | 1 (≈ 1 µM) | 0.25 (≈ 0.251 µM) | 4 (≈ 4.01 µM) | 1 (≈ 1 µM)
CC[C@H]1OC(=O)[C@H](C)[C@@H](O[C@H]2C[C@@](C)(OC)[C@@H](N)[C@H](C)O2)[C@H](C)[C@@H](O[C@@H]2O[C@H](C)C[C@H](N(C)C)[C@H]2OC(=O)OCC2c3ccccc3-c3ccccc32)[C@](C)(O)C[C@@H](C)N(CCF)C[C@H](C)[C@@H](O)[C@]1(C)O | 0.03 (≈ 0.0299 µM) | 0.13 (≈ 0.13 µM) | 1 (≈ 0.998 µM) | 0.25 (≈ 0.249 µM) | 2 (≈ 2 µM) | 0.5 (≈ 0.499 µM)
CC[C@H]1OC(=O)[C@H](C)[C@@H](O[C@H]2C[C@@](C)(OC)[C@H](N)[C@H](C)O2)[C@H](C)[C@@H](O[C@@H]2O[C@H](C)C[C@H](N(C)C)[C@H]2OC(=O)OCC2c3ccccc3-c3ccccc32)[C@](C)(O)C[C@@H](C)N(CCF)C[C@H](C)[C@@H](O)[C@]1(C)O | 0.03 (≈ 0.0299 µM) | 0.13 (≈ 0.13 µM) | 0.5 (≈ 0.499 µM) | 0.25 (≈ 0.249 µM) | 1 (≈ 0.998 µM) | 0.25 (≈ 0.249 µM)
C=CCN1C[C@H](C)[C@@H](O)[C@](C)(O)[C@@H](CC)OC(=O)[C@H](C)[C@@H](O[C@H]2C[C@@](C)(OC)[C@H](N)[C@H](C)O2)[C@H](C)[C@@H](O[C@@H]2O[C@H](C)C[C@H](N(C)C)[C@H]2OC(=O)OCC2c3ccccc3-c3ccccc32)[C@](C)(O)C[C@H]1C | 0.03 (≈ 0.0301 µM) | 0.25 (≈ 0.251 µM) | 0.5 (≈ 0.502 µM) | 0.5 (≈ 0.502 µM) | 2 (≈ 2.01 µM) | 1 (≈ 1 µM)
CC[C@H]1OC(=O)[C@H](C)[C@@H](O[C@H]2C[C@@](C)(OC)[C@H](n3cccc3)[C@H](C)O2)[C@H](C)[C@@H](O[C@@H]2O[C@H](C)C[C@H](N(C)C)[C@H]2OC(=O)OCC2c3ccccc3-c3ccccc32)[C@](C)(O)C[C@@H](C)N(C)C[C@H](C)[C@@H](O)[C@]1(C)O | 0.25 (≈ 0.245 µM) | 8 (≈ 7.84 µM) | 16 (≈ 15.7 µM) | 4 (≈ 3.92 µM) | 4 (≈ 3.92 µM) | 8 (≈ 7.84 µM)
CC[C@H]1OC(=O)[C@H](C)[C@@H](O[C@H]2C[C@@](C)(OC)[C@@H](O)[C@H](C)O2)[C@H](C)[C@@H](O[C@@H]2O[C@H](C)C[C@H](N(C)C)[C@H]2O)[C@](C)(O)C[C@@H](C)CN(C)[C@H](C)[C@@H](O)[C@]1(C)O [AZITHROMYCIN] | 0.03 (≈ 0.0401 µM) | 2 (≈ 2.67 µM) | 0.5 (≈ 0.668 µM) | 1 (≈ 1.34 µM) | 4 (≈ 5.34 µM) | 1 (≈ 1.34 µM)
CC[C@H]1OC(=O)[C@H](C)[C@@H](O[C@H]2C[C@@](C)(OC)[C@@H](O)[C@H](C)O2)[C@H](C)[C@@H](O[C@@H]2O[C@H](C)C[C@H](N(C)C)[C@H]2O)[C@](C)(O)C[C@@H](C)C(=O)[C@H](C)[C@@H](O)[C@]1(C)O [ERYTHROMYCIN] | 0.02 (≈ 0.0273 µM) | 32 (≈ 43.6 µM) | 2 (≈ 2.73 µM) | 32 (≈ 43.6 µM) | 1 (≈ 1.36 µM) | 0.25 (≈ 0.341 µM)
CC[C@H]1OC(=O)[C@H](C)[C@@H](O[C@H]2C[C@@](C)(OC)[C@@H](O)[C@H](C)O2)[C@H](C)[C@@H](O[C@@H]2O[C@H](C)C[C@H](N(C)C)[C@H]2O)[C@](C)(O)C[C@@H](C)N(C)C[C@H](C)[C@@H](O)[C@]1(C)O [L-701677] | 0.03 (≈ 0.0401 µM) | 1 (≈ 1.34 µM) | 1 (≈ 1.34 µM) | 1 (≈ 1.34 µM) | 2 (≈ 2.67 µM) | 0.5 (≈ 0.668 µM)
